{"source": "patent US8309110B2", "about": "“Biocide composition and sterilization method using the same” (priority 1998, dated 2012)", "test_system": "mixed solution of 8 types of bacteria", "experiment": "MIC and synergistic index on a mixed solution of 8 types of bacteria, two fold dilution method", "format": "cell-based", "conditions": "72 h; 30 degrees centigrade, 3 days, Tryptic Soy Broth; read-out: Qa: MIC value on the mixed strain of a single 3-isothiazolone", "experimental": "The sterilizing effects of 3-isothiazolone and polyhexamethyleneguanidine phosphate on a mixed solution of 8 types of bacteria (Enterobacter aerogens ATCC 13048, Escherichia coli ATCC 11229, Micrococcus luteus ATCC 9341, Pseudomonas aeruginosa ATCC 15442, Klebsiella pneumoniae, Staphylococcus epidermis ATCC 155, Staphylococcus aureus ATCC 6538, and Bacillus subtilis ATCC 6984) were tested using Tryptic Soy Broth manufactured by Difco Corporation according to the two fold dilution method. The minimum inhibiting concentration of each biocide and mixtures thereof were determined by observation with the naked eye of the degree of muddiness of the lowest concentration in which growth was deteriorated after culturing a culture fluid in which biocides and microorganisms are added at 30 degrees centigrade for 3 days."}
{"smiles": "O=c1ccs[nH]1", "note": "[3-isothiazolone]", "values": [{"measurement": "MIC", "result": 18.8, "unit": "µg/mL"}]}
